{"source": "patent US7973080B2", "about": "(Ambria Dermatology AB, priority 2003, dated 2011)", "assay_in_all_cases": "MIC by standard blood agar dilution technique", "key": {"[1]": {"test_system": "Enterococcus", "settings": "MR fuc +", "source_text": "(§1) The following bacteria were investigated: methicillin-resistant Staphylococcus aureus (MSRA), fucidic acid-resistant S. aureus, non-resistant S. pyogenes, coagulation-negative staphylococci (for resistance, see Table 1 below) vancomycin-resistant enterococci (Enterococcus CCUG van A and van B), non-resistant Escherichia coli, Acinetobacter resistant against cefadroxil, nitrofurantin, mecillinam, Serratia maltophilia resistant against most types of antibiotics, Enterobacter (for resistance, see Table 1 below; additionally resistant against cefadroxil and nitrofurantin), non-resistant α-streptococci, non-resistant Streptococcus Group G, Pseudomonas aeruginosa (for resistance, see Table 2 below). Inocula of 10^3 and 10^5 bacteria were used."}, "[2]": {"test_system": "S. aureus", "source_text": "as §1"}, "[3]": {"test_system": "Enterobacter", "settings": "MR tri −", "source_text": "as §1"}, "[4]": {"test_system": "S. pyogenes, group A", "source_text": "as §1"}, "[5]": {"test_system": "Streptococcus group G", "settings": "inoculate size 10^3", "source_text": "as §1"}}, "data": [{"smiles": "OCCCCCO", "note": "[pentane-1,5-diol]", "values": [{"measurement": "MIC (% by weight of pentane-1,5-diol)", "setting": "[1]; Enterococcus 921 × 57093, inoculate size 10^3, van −, tri +", "result": 7.5, "unit": "% by weight"}, {"measurement": "MIC (% by weight of pentane-1,5-diol)", "setting": "[1]; Enterococcus 921 × 57093, inoculate size 10^5, van −, tri +", "result": 10.0, "unit": "% by weight"}, {"measurement": "MIC (% by weight of pentane-1,5-diol)", "setting": "[1]; Enterococcus 921 × 57158, inoculate size 10^3, van −, tri +", "result": 7.5, "unit": "% by weight"}, {"measurement": "MIC (% by weight of pentane-1,5-diol)", "setting": "[1]; Enterococcus 921 × 57158, inoculate size 10^5, van −, tri +", "result": 7.5, "unit": "% by weight"}, {"measurement": "MIC (% by weight of pentane-1,5-diol)", "setting": "[1]; Enterococcus CCUG 37593 vanB, inoculate size 10^3, van +", "result": 5.0, "unit": "% by weight"}, {"measurement": "MIC (% by weight of pentane-1,5-diol)", "setting": "[1]; Enterococcus CCUG 37593 vanB, inoculate size 10^5, van +", "result": 7.5, "unit": "% by weight"}, {"measurement": "MIC (% by weight of pentane-1,5-diol)", "setting": "[1]; Enterococcus CCUG 37832 vanA, inoculate size 10^3, van +", "result": 5.0, "unit": "% by weight"}, {"measurement": "MIC (% by weight of pentane-1,5-diol)", "setting": "[1]; Enterococcus CCUG 37832 vanA, inoculate size 10^5, van +", "result": 7.5, "unit": "% by weight"}, {"measurement": "MIC (% by weight of pentane-1,5-diol)", "setting": "[1]; Enterococcus CCUG 39128 vanA, inoculate size 10^3, van +", "result": 5.0, "unit": "% by weight"}, {"measurement": "MIC (% by weight of pentane-1,5-diol)", "setting": "[1]; Enterococcus CCUG 39128 vanA, inoculate size 10^5, van +", "result": 10.0, "unit": "% by weight"}, {"measurement": "MIC (% by weight of pentane-1,5-diol)", "setting": "[1]; Enterococcus CCUG 43324 vanA, inoculate size 10^3, van +", "result": 7.5, "unit": "% by weight"}, {"measurement": "MIC (% by weight of pentane-1,5-diol)", "setting": "[1]; Enterococcus CCUG 43324 vanA, inoculate size 10^5, van +", "result": 10.0, "unit": "% by weight"}, {"measurement": "MIC (% by weight of pentane-1,5-diol)", "setting": "[2]; S. aureus 916 × 8137, inoculate size 10^3, MR fuc −", "result": 12.5, "unit": "% by weight"}, {"measurement": "MIC (% by weight of pentane-1,5-diol)", "setting": "[2]; S. aureus 916 × 8137, inoculate size 10^5, MR fuc −", "result": 10.0, "unit": "% by weight"}, {"measurement": "MIC (% by weight of pentane-1,5-diol)", "setting": "[2]; S. aureus 916 × 8143, inoculate size 10^3, MR fuc −", "result": 12.5, "unit": "% by weight"}, {"measurement": "MIC (% by weight of pentane-1,5-diol)", "setting": "[2]; S. aureus 916 × 8143, inoculate size 10^5, MR fuc −", "result": 12.5, "unit": "% by weight"}, {"measurement": "MIC (% by weight of pentane-1,5-diol)", "setting": "[2]; S. aureus 916 × 8150, inoculate size 10^3, MR fuc −", "result": 12.5, "unit": "% by weight"}, {"measurement": "MIC (% by weight of pentane-1,5-diol)", "setting": "[2]; S. aureus 916 × 8150, inoculate size 10^5, MR fuc −", "result": 15.0, "unit": "% by weight"}, {"measurement": "MIC (% by weight of pentane-1,5-diol)", "setting": "[2]; S. aureus 916 × 8155, inoculate size 10^3, MR fuc −", "result": 10.0, "unit": "% by weight"}, {"measurement": "MIC (% by weight of pentane-1,5-diol)", "setting": "[2]; S. aureus 916 × 8155, inoculate size 10^5, MR fuc −", "result": 12.5, "unit": "% by weight"}, {"measurement": "MIC (% by weight of pentane-1,5-diol)", "setting": "[2]; S. aureus 916 × 8158, inoculate size 10^3, MR fuc −", "result": 12.5, "unit": "% by weight"}, {"measurement": "MIC (% by weight of pentane-1,5-diol)", "setting": "[2]; S. aureus 916 × 8158, inoculate size 10^5, MR fuc −", "result": 15.0, "unit": "% by weight"}, {"measurement": "MIC (% by weight of pentane-1,5-diol)", "setting": "[2]; S. aureus 916 × 8163, inoculate size 10^3, MR fuc +", "result": 12.5, "unit": "% by weight"}, {"measurement": "MIC (% by weight of pentane-1,5-diol)", "setting": "[2]; S. aureus 916 × 8163, inoculate size 10^5, MR fuc +", "result": 17.5, "unit": "% by weight"}, {"measurement": "MIC (% by weight of pentane-1,5-diol)", "setting": "[2]; S. aureus 916 × 8180, inoculate size 10^3, MR fuc −", "result": 12.5, "unit": "% by weight"}, {"measurement": "MIC (% by weight of pentane-1,5-diol)", "setting": "[2]; S. aureus 916 × 8180, inoculate size 10^5, MR fuc −", "result": 15.0, "unit": "% by weight"}, {"measurement": "MIC (% by weight of pentane-1,5-diol)", "setting": "[2]; S. aureus 916 × 8181, inoculate size 10^3, MR fuc −", "result": 12.5, "unit": "% by weight"}, {"measurement": "MIC (% by weight of pentane-1,5-diol)", "setting": "[2]; S. aureus 916 × 8181, inoculate size 10^5, MR fuc −", "result": 15.0, "unit": "% by weight"}, {"measurement": "MIC (% by weight of pentane-1,5-diol)", "setting": "[2]; S. aureus 916 × 8183, inoculate size 10^3, MR fuc −", "result": 12.5, "unit": "% by weight"}, {"measurement": "MIC (% by weight of pentane-1,5-diol)", "setting": "[2]; S. aureus 916 × 8183, inoculate size 10^5, MR fuc −", "result": 17.5, "unit": "% by weight"}, {"measurement": "MIC (% by weight of pentane-1,5-diol)", "setting": "[2]; S. aureus 916 × 8184, inoculate size 10^3, MR fuc +", "result": 10.0, "unit": "% by weight"}, {"measurement": "MIC (% by weight of pentane-1,5-diol)", "setting": "[2]; S. aureus 916 × 8184, inoculate size 10^5, MR fuc +", "result": 12.5, "unit": "% by weight"}, {"measurement": "MIC (% by weight of pentane-1,5-diol)", "setting": "[2]; S. aureus 916 × 8191, inoculate size 10^3, MR fuc −", "result": 12.5, "unit": "% by weight"}, {"measurement": "MIC (% by weight of pentane-1,5-diol)", "setting": "[2]; S. aureus 916 × 8191, inoculate size 10^5, MR fuc −", "result": 15.0, "unit": "% by weight"}, {"measurement": "MIC (% by weight of pentane-1,5-diol)", "setting": "[3]; Enterobacter 921 × 57097, inoculate size 10^3", "result": 5.0, "unit": "% by weight"}, {"measurement": "MIC (% by weight of pentane-1,5-diol)", "setting": "[3]; Enterobacter 921 × 57097, inoculate size 10^5", "result": 10.0, "unit": "% by weight"}, {"measurement": "MIC (% by weight of pentane-1,5-diol)", "setting": "[3]; Enterobacter 921 × 57100, inoculate size 10^3", "result": 5.0, "unit": "% by weight"}, {"measurement": "MIC (% by weight of pentane-1,5-diol)", "setting": "[3]; Enterobacter 921 × 57100, inoculate size 10^5", "result": 10.0, "unit": "% by weight"}, {"measurement": "MIC (% by weight of pentane-1,5-diol)", "setting": "[3]; Enterobacter 921 × 57119, inoculate size 10^3", "result": 5.0, "unit": "% by weight"}, {"measurement": "MIC (% by weight of pentane-1,5-diol)", "setting": "[3]; Enterobacter 921 × 57119, inoculate size 10^5", "result": 10.0, "unit": "% by weight"}, {"measurement": "MIC (% by weight of pentane-1,5-diol)", "setting": "[3]; Enterobacter 921 × 57416, inoculate size 10^3", "result": 5.0, "unit": "% by weight"}, {"measurement": "MIC (% by weight of pentane-1,5-diol)", "setting": "[3]; Enterobacter 921 × 57416, inoculate size 10^5", "result": 10.0, "unit": "% by weight"}, {"measurement": "MIC (% by weight of pentane-1,5-diol)", "setting": "[3]; Enterobacter 921 × 57514, inoculate size 10^3", "result": 5.0, "unit": "% by weight"}, {"measurement": "MIC (% by weight of pentane-1,5-diol)", "setting": "[3]; Enterobacter 921 × 57514, inoculate size 10^5", "result": 10.0, "unit": "% by weight"}, {"measurement": "MIC (% by weight of pentane-1,5-diol)", "setting": "[3]; Enterobacter 921 × 57574, inoculate size 10^3", "result": 5.0, "unit": "% by weight"}, {"measurement": "MIC (% by weight of pentane-1,5-diol)", "setting": "[3]; Enterobacter 921 × 57574, inoculate size 10^5", "result": 10.0, "unit": "% by weight"}, {"measurement": "MIC (% by weight of pentane-1,5-diol)", "setting": "[4]; group A 912 × 1090, inoculate size 10^3", "result": 7.5, "unit": "% by weight"}, {"measurement": "MIC (% by weight of pentane-1,5-diol)", "setting": "[4]; group A 912 × 1115, inoculate size 10^3", "result": 7.5, "unit": "% by weight"}, {"measurement": "MIC (% by weight of pentane-1,5-diol)", "setting": "[4]; group A 912 × 1119, inoculate size 10^3", "result": 7.5, "unit": "% by weight"}, {"measurement": "MIC (% by weight of pentane-1,5-diol)", "setting": "[4]; group A 912 × 1121, inoculate size 10^3", "result": 7.5, "unit": "% by weight"}, {"measurement": "MIC (% by weight of pentane-1,5-diol)", "setting": "[4]; group A 912 × 1131, inoculate size 10^3", "result": 7.5, "unit": "% by weight"}, {"measurement": "MIC (% by weight of pentane-1,5-diol)", "setting": "[5]; Strepotocccus group G 912 × 1106", "result": 7.5, "unit": "% by weight"}, {"measurement": "MIC (% by weight of pentane-1,5-diol)", "setting": "[5]; Streptococcus group G 900 × 1714", "result": 10.0, "unit": "% by weight"}, {"measurement": "MIC (% by weight of pentane-1,5-diol)", "setting": "[5]; Streptococcus group G 915 × 1095", "result": 7.5, "unit": "% by weight"}, {"measurement": "MIC (% by weight of pentane-1,5-diol)", "setting": "[5]; Streptococcus group G 915 × 1146", "result": 7.5, "unit": "% by weight"}, {"measurement": "MIC (% by weight of pentane-1,5-diol)", "setting": "[5]; Streptococcus group G 916 × 10985", "result": 7.5, "unit": "% by weight"}]}]}
